Measurements published in ChEMBL document CHEMBL5104172, “Design, synthesis, and antibacterial activity of derivatives of Tryptophanyl-tRNA synthetase inhibitor indolmycin” (Eur J Med Chem, 2022).
In brackets after ≈: the same amount, converted by molar mass.

How the values were obtained:
Type in all cases: functional
Enterococcus faecium [1] = test: Antibacterial activity against Enterococcus faecium EFM17-2 measured by liquid dilution method
Staphylococcus aureus [2] = test: Antibacterial activity against methicillin-resistant Staphylococcus aureus ATCC 33591 measured by liquid dilution method
Enterococcus faecium [3] = test: Antibacterial activity against Enterococcus faecium EFM17-1 measured by liquid dilution method
Staphylococcus aureus [4] = test: Antibacterial activity against Staphylococcus aureus ATCC 29213 measured by liquid dilution method
Staphylococcus aureus [5] = test: Antibacterial activity against methicillin-resistant Staphylococcus aureus MRSA17-3 measured by liquid dilution method
Staphylococcus aureus [6] = test: Antibacterial activity against vancomycin-intermediate Staphylococcus aureus ATCC 700788 measured by liquid dilution method
[7] = system: Staphylococcus epidermidis; test: Antibacterial activity against methicillin-sensitive Staphylococcus epidermidis MSSE17-3 measured by liquid dilution method
[8] = system: Staphylococcus epidermidis; test: Antibacterial activity against methicillin-resistant Staphylococcus epidermidis MRSE17-1 measured by liquid dilution method
[9] = system: Staphylococcus epidermidis; test: Antibacterial activity against methicillin-resistant Staphylococcus epidermidis MRSE17-4 measured by liquid dilution method
Staphylococcus aureus [10] = test: Antibacterial activity against methicillin-resistant Staphylococcus aureus MRSA17-6 measured by liquid dilution method
Staphylococcus aureus [11] = test: Antibacterial activity against methicillin-sensitive Staphylococcus aureus MSSA17-2 measured by liquid dilution method
Staphylococcus aureus [12] = test: Antibacterial activity against methicillin-sensitive Staphylococcus aureus MSSA17-3 measured by liquid dilution method
[13] = system: Staphylococcus epidermidis; test: Antibacterial activity against methicillin-sensitive Staphylococcus epidermidis MSSE17-2 measured by liquid dilution method
[14] = system: Staphylococcus epidermidis; test: Antibacterial activity against methicillin-resistant Staphylococcus epidermidis MRSE17-6 measured by liquid dilution method
Staphylococcus aureus [15] = test: Antibacterial activity against methicillin-resistant Staphylococcus aureus MRSA17-2 measured by liquid dilution method
Staphylococcus aureus [16] = test: Antibacterial activity against vancomycin-intermediate Staphylococcus aureus ATCC 700699 measured by liquid dilution method
Enterococcus faecalis [17] = test: Antibacterial activity against Enterococcus faecalis EFA17-1 measured by liquid dilution method
[18] = system: Staphylococcus epidermidis; test: Antibacterial activity against methicillin-resistant Staphylococcus epidermidis MRSE17-2 measured by liquid dilution method
Staphylococcus aureus [19] = test: Antibacterial activity against methicillin-resistant Staphylococcus aureus MRSA17-5 measured by liquid dilution method
Staphylococcus aureus [20] = test: Antibacterial activity against methicillin-sensitive Staphylococcus aureus MSSA17-1 measured by liquid dilution method
Staphylococcus aureus [21] = test: Antibacterial activity against methicillin-resistant Staphylococcus aureus MRSA17-1 measured by liquid dilution method
[22] = system: Staphylococcus epidermidis; test: Antibacterial activity against methicillin-resistant Staphylococcus epidermidis MRSE17-3 measured by liquid dilution method
Staphylococcus aureus [23] = test: Antibacterial activity against methicillin-resistant Staphylococcus aureus ATCC 43300 measured by liquid dilution method
[24] = system: Staphylococcus epidermidis; test: Antibacterial activity against methicillin-sensitive Staphylococcus epidermidis MSSE17-1 measured by liquid dilution method
Enterococcus faecalis [25] = test: Antibacterial activity against Enterococcus faecalis ATCC 29212 measured by liquid dilution method
Escherichia coli = test: Antibacterial activity against Escherichia coli ATCC 25922 measured by liquid dilution method
Staphylococcus aureus [26] = test: Antibacterial activity against methicillin-resistant Staphylococcus aureus NRS384 measured by liquid dilution method

## CNC1=NC(=O)[C@H]([C@H](C)c2c[nH]c3c(F)cccc23)O1
Enterococcus faecium [1]
  MIC: 4 µg/mL (≈ 14.5 µM)
Staphylococcus aureus [2]
  MIC: 8 µg/mL (≈ 29.1 µM)
Enterococcus faecium [3]
  MIC: 2 µg/mL (≈ 7.27 µM)
Staphylococcus aureus [4]
  MIC: 8 µg/mL (≈ 29.1 µM)
Staphylococcus aureus [5]
  MIC: 1 µg/mL (≈ 3.63 µM)
Staphylococcus aureus [6]
  MIC: 4 µg/mL (≈ 14.5 µM)
[7]
  MIC: 4 µg/mL (≈ 14.5 µM)
[8]
  MIC: 0.5 µg/mL (≈ 1.82 µM)
[9]
  MIC: 0.5 µg/mL (≈ 1.82 µM)
Staphylococcus aureus [10]
  MIC: 1 µg/mL (≈ 3.63 µM)
Staphylococcus aureus [11]
  MIC: 0.5 µg/mL (≈ 1.82 µM)
Staphylococcus aureus [12]
  MIC: 0.5 µg/mL (≈ 1.82 µM)
[13]
  MIC: 4 µg/mL (≈ 14.5 µM)
[14]
  MIC: 0.5 µg/mL (≈ 1.82 µM)
Staphylococcus aureus [15]
  MIC: 0.5 µg/mL (≈ 1.82 µM)
Staphylococcus aureus [16]
  MIC: 2 µg/mL (≈ 7.27 µM)
Enterococcus faecalis [17]
  MIC: 2 µg/mL (≈ 7.27 µM)
[18]
  MIC: 0.25 µg/mL (≈ 0.908 µM)
Staphylococcus aureus [19]
  MIC: 1 µg/mL (≈ 3.63 µM)
Staphylococcus aureus [20]
  MIC: 1 µg/mL (≈ 3.63 µM)
Staphylococcus aureus [21]
  MIC: 0.5 µg/mL (≈ 1.82 µM)
[22]
  MIC: 0.5 µg/mL (≈ 1.82 µM)
Staphylococcus aureus [23]
  MIC: 4 µg/mL (≈ 14.5 µM)
[24]
  MIC: 2 µg/mL (≈ 7.27 µM)
Enterococcus faecalis [25]
  MIC: 2 µg/mL (≈ 7.27 µM)

## CNC1=NC(=O)C(C(C)c2c[nH]c3cccc(OC)c23)O1 (racemic)
Staphylococcus aureus [4]
  MIC: 128 µg/mL (≈ 445 µM)
Escherichia coli
  MIC: 16 µg/mL (≈ 55.7 µM)
Staphylococcus aureus [26]
  MIC: > 128 µg/mL

## CNC1=NC(=O)[C@@H]([C@@H](C)c2c[nH]c3cccc(Cl)c23)O1
Enterococcus faecium [1]
  MIC: > 128 µg/mL
Staphylococcus aureus [2]
  MIC: 64 µg/mL (≈ 219 µM)
Enterococcus faecium [3]
  MIC: > 128 µg/mL
Staphylococcus aureus [4]
  MIC: 64 µg/mL (≈ 219 µM)
Staphylococcus aureus [5]
  MIC: 64 µg/mL (≈ 219 µM)
Staphylococcus aureus [6]
  MIC: 128 µg/mL (≈ 439 µM)
[7]
  MIC: > 128 µg/mL
[8]
  MIC: 128 µg/mL (≈ 439 µM)
[9]
  MIC: 64 µg/mL (≈ 219 µM)
Staphylococcus aureus [10]
  MIC: 64 µg/mL (≈ 219 µM)
Staphylococcus aureus [11]
  MIC: 64 µg/mL (≈ 219 µM)
Staphylococcus aureus [12]
  MIC: 64 µg/mL (≈ 219 µM)
[13]
  MIC: > 128 µg/mL
[14]
  MIC: 64 µg/mL (≈ 219 µM)
Staphylococcus aureus [15]
  MIC: 64 µg/mL (≈ 219 µM)
Staphylococcus aureus [16]
  MIC: > 128 µg/mL
Enterococcus faecalis [17]
  MIC: > 128 µg/mL
[18]
  MIC: 128 µg/mL (≈ 439 µM)
Staphylococcus aureus [19]
  MIC: 64 µg/mL (≈ 219 µM)
Staphylococcus aureus [20]
  MIC: 64 µg/mL (≈ 219 µM)
Staphylococcus aureus [21]
  MIC: 64 µg/mL (≈ 219 µM)
[22]
  MIC: > 128 µg/mL
Staphylococcus aureus [23]
  MIC: 64 µg/mL (≈ 219 µM)
[24]
  MIC: > 128 µg/mL
Enterococcus faecalis [25]
  MIC: > 128 µg/mL

## CC(c1c[nH]c2ccccc12)C1SC(N)=NC1=O (racemic)
Staphylococcus aureus [4]
  MIC: 8 µg/mL (≈ 30.8 µM)
Escherichia coli
  MIC: > 128 µg/mL
Staphylococcus aureus [26]
  MIC: > 128 µg/mL

## CNC1=NC(=O)C(C(C)c2c[nH]c3cc(Br)ccc23)O1 (racemic)
Staphylococcus aureus [4]
  MIC: > 128 µg/mL
Escherichia coli
  MIC: 4 µg/mL (≈ 11.9 µM)
Staphylococcus aureus [26]
  MIC: 16 µg/mL (≈ 47.6 µM)

## CNC1=NC(=O)C(C(C)c2c[nH]c3ccccc23)S1 (racemic)
Staphylococcus aureus [4]
  MIC: 4 µg/mL (≈ 14.6 µM)
Escherichia coli
  MIC: > 128 µg/mL
Staphylococcus aureus [26]
  MIC: > 128 µg/mL

## CNC1=NC(=O)C(C(C)c2c[nH]c3cccc(N4CCCCC4)c23)O1 (racemic)
Staphylococcus aureus [4]
  MIC: 64 µg/mL (≈ 188 µM)
Escherichia coli
  MIC: > 128 µg/mL
Staphylococcus aureus [26]
  MIC: > 128 µg/mL

## CC(c1c[nH]c2cccc(F)c12)C1OC(N)=NC1=O (racemic)
Staphylococcus aureus [4]
  MIC: 16 µg/mL (≈ 61.2 µM)
Escherichia coli
  MIC: > 128 µg/mL
Staphylococcus aureus [26]
  MIC: > 128 µg/mL

## CNC1=NC(=O)C(C(C)c2c[nH]c3c(Br)cccc23)O1 (racemic)
Staphylococcus aureus [4]
  MIC: > 128 µg/mL
Escherichia coli
  MIC: > 128 µg/mL
Staphylococcus aureus [26]
  MIC: > 128 µg/mL

## CNC1=NC(=O)C(C(C)c2c[nH]c3cccc(Cl)c23)O1 (racemic)
Staphylococcus aureus [4]
  MIC: 1 µg/mL (≈ 3.43 µM)
Escherichia coli
  MIC: 128 µg/mL (≈ 439 µM)
Staphylococcus aureus [26]
  MIC: 2 µg/mL (≈ 6.86 µM)

## CNC1=NC(=O)C(C(C)c2c[nH]c3cccc(C)c23)S1 (racemic)
Staphylococcus aureus [4]
  MIC: 4 µg/mL (≈ 13.9 µM)
Escherichia coli
  MIC: > 128 µg/mL
Staphylococcus aureus [26]
  MIC: > 128 µg/mL

## CNC1=NC(=O)C(C(C)c2c[nH]c3cccc(Br)c23)O1 (racemic)
Staphylococcus aureus [4]
  MIC: 4 µg/mL (≈ 11.9 µM)
Escherichia coli
  MIC: > 128 µg/mL
Staphylococcus aureus [26]
  MIC: > 128 µg/mL

## CN[C@H](CC(C)C)C(=O)N[C@H]1C(=O)N[C@@H](CC(N)=O)C(=O)N[C@H]2C(=O)N[C@H]3C(=O)N[C@H](C(=O)N[C@H](C(=O)O)c4cc(O)cc(O)c4-c4cc3ccc4O)[C@H](O)c3ccc(c(Cl)c3)Oc3cc2cc(c3O[C@@H]2O[C@H](CO)[C@@H](O)[C@H](O)[C@H]2O[C@H]2C[C@](C)(N)[C@H](O)[C@H](C)O2)Oc2ccc(cc2Cl)[C@H]1O [VANCOMYCIN]
Staphylococcus aureus [16]
  MIC: 8 µg/mL (≈ 5.52 µM)
Enterococcus faecalis [17]
  MIC: 2 µg/mL (≈ 1.38 µM)

## CC(c1c[nH]c2cccc(F)c12)C1SC(N)=NC1=O (racemic)
Staphylococcus aureus [4]
  MIC: 16 µg/mL (≈ 57.7 µM)
Escherichia coli
  MIC: > 128 µg/mL
Staphylococcus aureus [26]
  MIC: > 128 µg/mL

## CNC1=NC(=O)C(C(C)c2c[nH]c3cccc(F)c23)O1 (racemic)
Staphylococcus aureus [4]
  MIC: 1 µg/mL (≈ 3.63 µM)
Escherichia coli
  MIC: 4 µg/mL (≈ 14.5 µM)
Staphylococcus aureus [26]
  MIC: 1 µg/mL (≈ 3.63 µM)

## CNC1=NC(=O)C(C(C)c2c[nH]c3c(C)cccc23)O1 (racemic)
Staphylococcus aureus [4]
  MIC: > 128 µg/mL
Escherichia coli
  MIC: > 128 µg/mL
Staphylococcus aureus [26]
  MIC: > 128 µg/mL

## CNC1=NC(=O)C(C(C)c2c[nH]c3ccc(Br)cc23)O1 (racemic)
Staphylococcus aureus [4]
  MIC: > 128 µg/mL
Escherichia coli
  MIC: 4 µg/mL (≈ 11.9 µM)
Staphylococcus aureus [26]
  MIC: 64 µg/mL (≈ 190 µM)

## CNC1=NC(=O)C(C(C)c2c[nH]c3cccc(O)c23)O1 (racemic)
Staphylococcus aureus [4]
  MIC: > 128 µg/mL
Escherichia coli
  MIC: > 128 µg/mL
Staphylococcus aureus [26]
  MIC: 8 µg/mL (≈ 29.3 µM)
